Assay results: US20140228325A1, “ALKENE DERIVATIVES AS SPHINGOSINE 1-PHOSPHATE (S1P) RECEPTOR MODULATORS” (Allergan, Inc., priority 2013, published 2014)

Molecular target: T1, human S1P1 receptor (Homo sapiens, UniProt P21453)
T1 construct: expressed in transfected cells; membranes used
Test: GTP γ35S binding assay for S1P1 activity
Format: biochemical
Conditions: membranes of cells stably expressing the S1P1 receptor, test concentrations 0.08 to 5,000 nM, 30 min at 25° C.
Protocol: Compounds were synthesized and tested for S1P1 activity using the GTP γ^35S binding assay. These compounds may be assessed for their ability to activate or block activation of the human S1P1 receptor in cells stably expressing the S1P1 receptor. GTP γ^35S binding was measured in the medium containing (mM) HEPES 25, pH 7.4, MgCl2 10, NaCl 100, dithitothreitol 0.5, digitonin 0.003%, 0.2 nM GTP γ^35S, and 5 μg membrane protein in a volume of 150 μl. Test compounds were included in the concentration range from 0.08 to 5,000 nM unless indicated otherwise. Membranes were incubated with 100 μM 5′-adenylylimmidodiphosphate for 30 min, and subsequently with 10 μM GDP for 10 min on ice. Drug solutions and membrane were mixed, and then reactions were initiated by adding GTP γ^35S and continued for 30 min at 25° C. Reaction mixtures were filtered over Whatman GF/B filters under vacuum, and washed three times with 3 mL of ice-cold buffer (HEPES 25, pH7.4, MgCl2 10 and NaCl 100). Filters were dried and mixed with scintillant, and counted for ^35S activity using a β-counter. Agonist-induced GTP γ^35S binding was obtained by subtracting that in the absence of agonist. Binding data were analyzed using a non-linear regression method. In case of antagonist assay, the reaction mixture contained 10 nM S1P in the presence of test antagonist at concentrations ranging from 0.08 to 5000 nM.
Activity potency: S1P1 receptor from GTP γ^35S: nM, (EC50),

T1 sequence (P21453 whole entry): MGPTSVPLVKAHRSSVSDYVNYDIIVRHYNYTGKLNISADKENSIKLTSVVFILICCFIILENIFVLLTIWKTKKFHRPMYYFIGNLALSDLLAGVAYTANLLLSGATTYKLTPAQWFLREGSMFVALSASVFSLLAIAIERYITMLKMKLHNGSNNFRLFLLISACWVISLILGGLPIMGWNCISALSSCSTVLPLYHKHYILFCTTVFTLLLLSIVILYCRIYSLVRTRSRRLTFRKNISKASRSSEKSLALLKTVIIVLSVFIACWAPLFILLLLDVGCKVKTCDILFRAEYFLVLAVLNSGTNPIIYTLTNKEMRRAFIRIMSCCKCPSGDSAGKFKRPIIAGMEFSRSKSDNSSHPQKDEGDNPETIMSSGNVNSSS

Compound | EC50
Cc1ccc(/C=C(\CCCOc2ccc(CNCCCP(=O)(O)O)cc2)c2cccc(Cl)c2)cc1C [Compound 1, {3-[(4-{[(4E)-4-(3-Chlorophenyl)-5-(3,4-dimethylphenyl)pent-4-en-1-yl]oxy}benzyl)amino]propyl}phosphonic acid] | 9.65 nM
Cc1ccc(/C=C(\CCCOc2ccc(CNCCC(=O)O)cc2)c2cccc(Cl)c2)cc1C [Compound 2, 3-[(4-{[(4E)-4-(3-Chlorophenyl)-5-(3,4-dimethylphenyl)pent-4-en-1-yl]oxy}benzyl)amino]propanoic acid] | 73.2 nM
Cc1ccc(/C=C(\CCCCSc2ccc(CNCCC(=O)O)cc2)c2cc(F)cc(F)c2)cc1C [Compound 9, 3-[(4-{[(5E)-5-(3,5-Difluorophenyl)-6-(3,4-dimethylphenyl)hex-5-en-1-yl]thio}benzyl)amino]propanoic acid] | 639 nM
Cc1ccc(/C=C(\CCC[S+]([O-])c2ccc(CNCCC(=O)O)cc2)c2cccc(Cl)c2)cc1C (centres unmarked) [Compound 5, 3-[(4-{[(4E)-4-(3-Chlorophenyl)-5-(3,4-dimethylphenyl)pent-4-en-1-yl]sulfinyl}benzyl)amino]propanoic acid] | 450 nM
Cc1ccc(/C=C(\CCCOc2ccc(CNCCC(=O)O)cc2)c2cc(F)cc(F)c2)cc1C [Compound 3, 3-[(4-{[(4E)-4-(3,5-Difluorophenyl)-5-(3,4-dimethylphenyl)pent-4-en-1-yl]oxy}benzyl)amino]propanoic acid] | 51.9 nM
Cc1ccc(/C=C(\CCCOc2ccc(CNCCCP(=O)(O)O)cc2)c2cc(F)cc(F)c2)cc1C [Compound 4, {3-[(4-{[(4E)-4-(3,5-Difluorophenyl)-5-(3,4-dimethylphenyl)pent-4-en-1-yl]oxy}benzyl)amino]propyl}phosphonic acid] | 7.84 nM
Cc1ccc(/C=C(\CCC[S+]([O-])c2ccc(CNCCC(=O)O)cc2)c2cc(F)cc(F)c2)cc1C (centres unmarked) [Compound 7, 3-[(4-{[(4E)-4-(3,5-Difluorophenyl)-5-(3,4-dimethylphenyl)pent-4-en-1-yl]sulfinyl}benzyl)amino]propanoic acid] | 111 nM
Cc1ccc(/C=C(\CCCSc2ccc(CNCCC(=O)O)cc2)c2cc(F)cc(F)c2)cc1C [Compound 8, 3-[(4-{[(4E)-4-(3,5-Difluorophenyl)-5-(3,4-dimethylphenyl)pent-4-en-1-yl]thio}benzyl)amino]propanoic acid] | 10.2 nM
